What all share (format): biochemical
The target of experiment [1] is T1, human JAK1 (a.a. 837-1142) (Homo sapiens, UniProt P23458).
T1 construct: human JAK1 (a.a. 837-1142); His tag (N); made in house; host or cells: insect cells (baculovirus)
Description: In vitro JAK kinase assay (HTRF, phosphorylation of a biotinylated peptide), JAK1. As to conditions: method AA1 (90 μM ATP) or AA2 (1000 μM ATP), not stated per value; read-out: JAK1 IC50. In a few lines: (§1)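 Kinase activity was measured as phosphorylation of a biotinylated peptide, with ATP at 90 μM for JAK1, 30 μM for JAK2 and 3 μM for JAK3. Reactions ran 1 hr at room temperature, were stopped with EDTA plus SA-APC and Eu-Py20, and were read by HTRF after 40 minutes of antibody binding.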
Background: Time-resolved FRET reads energy transfer from a long-lived donor to a nearby acceptor.

The target in experiment [2] is T2, human JAK2 (a.a. 828-1132) (Homo sapiens, UniProt O60674).
T2 construct: JAK2 (a.a. 828-1132); His tag (N); made in house; host or cells: insect cells (baculovirus)
Nature of the experiment: In vitro JAK kinase assay (HTRF, phosphorylation of a biotinylated peptide), JAK2. As to conditions: method AA1 (30 μM ATP) or AA2 (1000 μM ATP), not stated per value. A digest of the protocol:
as §1

Experiment [3] addresses T3, human JAK3 (a.a. 781-1124) (Homo sapiens, UniProt P52333).
T3 construct: JAK3 (a.a. 781-1124); His tag (N); made in house; host or cells: insect cells (baculovirus)
Description: In vitro JAK kinase assay (HTRF, phosphorylation of a biotinylated peptide), JAK3. As to conditions: method AA1 (3 μM ATP) or AA2 (1000 μM ATP), not stated per value. A digest of the protocol:
as §1

Experiment [4] concerns the target T4, Recombinant Human Anaplastic Lymphoma Kinase (Homo sapiens, UniProt Q9UM73).
T4 construct: purchased Invitrogen, Carlsbad, Calif
Description: ALK HTRF kinase assay. As to conditions: compound at 500 nM or 1 mM; 90 μM ATP. In a few lines:
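Recombinant human ALK phosphorylated a biotinylated synthetic peptide. Phosphotyrosine was detected by TR-FRET between a Eu-labelled anti-phosphotyrosine antibody and streptavidin-allophycocyanin. IC50 values came from fitting signal against inhibitor concentration to a four-parameter logistic equation with variable Hill slope.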

A further experiment concerns the target TYK2 (Homo sapiens, UniProt P29597). Description: TYK2 kinase inhibition (Table A1).

Counter-ions that a name gives are not always drawn.

Here are results for 14 molecules from US8871753B2, “Macrocyclic compounds and their use as kinase inhibitors” (Incyte Corporation, priority 2008, dated 2014).

One may read the IC50 as the concentration that gives 50% inhibition.

T2 sequence (O60674 828-1132): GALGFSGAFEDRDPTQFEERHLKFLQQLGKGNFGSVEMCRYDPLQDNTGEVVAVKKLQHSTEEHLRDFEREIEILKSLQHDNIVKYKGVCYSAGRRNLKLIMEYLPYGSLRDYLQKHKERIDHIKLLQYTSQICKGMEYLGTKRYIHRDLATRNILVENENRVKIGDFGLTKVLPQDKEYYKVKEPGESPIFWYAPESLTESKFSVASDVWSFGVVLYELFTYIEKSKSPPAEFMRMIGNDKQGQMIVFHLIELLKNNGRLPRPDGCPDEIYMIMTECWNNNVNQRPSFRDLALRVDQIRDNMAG
T4 sequence (Q9UM73 19-1620): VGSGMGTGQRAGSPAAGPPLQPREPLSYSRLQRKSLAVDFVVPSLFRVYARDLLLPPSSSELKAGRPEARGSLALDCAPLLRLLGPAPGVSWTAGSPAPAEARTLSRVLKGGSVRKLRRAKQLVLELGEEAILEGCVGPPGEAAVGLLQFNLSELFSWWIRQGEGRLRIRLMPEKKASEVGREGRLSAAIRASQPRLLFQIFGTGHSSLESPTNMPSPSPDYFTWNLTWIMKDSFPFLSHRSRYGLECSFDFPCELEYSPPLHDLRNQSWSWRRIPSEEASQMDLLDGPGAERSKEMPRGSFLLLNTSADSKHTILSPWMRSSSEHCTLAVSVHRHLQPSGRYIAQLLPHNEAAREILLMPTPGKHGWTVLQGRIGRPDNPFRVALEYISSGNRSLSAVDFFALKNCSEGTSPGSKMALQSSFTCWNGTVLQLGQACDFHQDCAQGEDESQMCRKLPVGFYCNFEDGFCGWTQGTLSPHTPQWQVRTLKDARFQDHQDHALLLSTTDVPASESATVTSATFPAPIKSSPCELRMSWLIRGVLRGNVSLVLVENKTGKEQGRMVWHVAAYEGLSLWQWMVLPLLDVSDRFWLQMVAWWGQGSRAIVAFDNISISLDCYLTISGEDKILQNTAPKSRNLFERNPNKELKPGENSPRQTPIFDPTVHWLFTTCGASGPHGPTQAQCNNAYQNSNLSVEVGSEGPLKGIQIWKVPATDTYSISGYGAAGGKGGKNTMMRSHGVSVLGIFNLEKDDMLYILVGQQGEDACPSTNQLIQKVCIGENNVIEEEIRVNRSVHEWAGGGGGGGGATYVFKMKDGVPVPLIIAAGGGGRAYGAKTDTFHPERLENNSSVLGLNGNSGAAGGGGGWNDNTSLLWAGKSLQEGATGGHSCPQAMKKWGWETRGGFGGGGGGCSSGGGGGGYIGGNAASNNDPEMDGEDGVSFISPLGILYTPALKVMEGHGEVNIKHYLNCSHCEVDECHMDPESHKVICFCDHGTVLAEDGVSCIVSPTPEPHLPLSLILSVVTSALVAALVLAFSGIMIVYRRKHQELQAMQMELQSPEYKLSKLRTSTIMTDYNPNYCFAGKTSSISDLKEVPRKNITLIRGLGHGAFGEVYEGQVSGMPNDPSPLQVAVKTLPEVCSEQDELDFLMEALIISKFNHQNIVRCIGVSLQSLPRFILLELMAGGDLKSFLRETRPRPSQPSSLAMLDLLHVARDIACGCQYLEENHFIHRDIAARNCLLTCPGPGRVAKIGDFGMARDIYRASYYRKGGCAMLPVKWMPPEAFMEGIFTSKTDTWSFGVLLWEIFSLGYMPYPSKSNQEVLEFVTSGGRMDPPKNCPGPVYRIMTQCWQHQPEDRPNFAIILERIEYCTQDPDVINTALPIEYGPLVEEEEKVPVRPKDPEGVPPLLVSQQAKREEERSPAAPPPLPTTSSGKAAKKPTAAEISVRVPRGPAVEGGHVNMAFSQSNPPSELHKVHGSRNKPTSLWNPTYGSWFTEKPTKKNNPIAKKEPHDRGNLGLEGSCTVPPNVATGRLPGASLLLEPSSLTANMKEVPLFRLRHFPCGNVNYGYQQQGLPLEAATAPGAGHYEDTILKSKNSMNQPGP
T3 sequence (P52333 781-1124): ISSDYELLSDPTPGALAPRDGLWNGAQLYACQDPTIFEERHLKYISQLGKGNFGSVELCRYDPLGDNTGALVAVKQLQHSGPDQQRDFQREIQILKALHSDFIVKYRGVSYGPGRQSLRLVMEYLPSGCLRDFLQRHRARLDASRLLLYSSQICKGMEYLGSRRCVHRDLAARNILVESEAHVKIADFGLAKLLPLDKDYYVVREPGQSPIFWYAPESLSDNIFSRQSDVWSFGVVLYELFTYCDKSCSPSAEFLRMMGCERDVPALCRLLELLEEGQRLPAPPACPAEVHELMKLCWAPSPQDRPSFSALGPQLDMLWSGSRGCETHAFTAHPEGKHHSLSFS
TYK2, sequence (P29597 whole entry): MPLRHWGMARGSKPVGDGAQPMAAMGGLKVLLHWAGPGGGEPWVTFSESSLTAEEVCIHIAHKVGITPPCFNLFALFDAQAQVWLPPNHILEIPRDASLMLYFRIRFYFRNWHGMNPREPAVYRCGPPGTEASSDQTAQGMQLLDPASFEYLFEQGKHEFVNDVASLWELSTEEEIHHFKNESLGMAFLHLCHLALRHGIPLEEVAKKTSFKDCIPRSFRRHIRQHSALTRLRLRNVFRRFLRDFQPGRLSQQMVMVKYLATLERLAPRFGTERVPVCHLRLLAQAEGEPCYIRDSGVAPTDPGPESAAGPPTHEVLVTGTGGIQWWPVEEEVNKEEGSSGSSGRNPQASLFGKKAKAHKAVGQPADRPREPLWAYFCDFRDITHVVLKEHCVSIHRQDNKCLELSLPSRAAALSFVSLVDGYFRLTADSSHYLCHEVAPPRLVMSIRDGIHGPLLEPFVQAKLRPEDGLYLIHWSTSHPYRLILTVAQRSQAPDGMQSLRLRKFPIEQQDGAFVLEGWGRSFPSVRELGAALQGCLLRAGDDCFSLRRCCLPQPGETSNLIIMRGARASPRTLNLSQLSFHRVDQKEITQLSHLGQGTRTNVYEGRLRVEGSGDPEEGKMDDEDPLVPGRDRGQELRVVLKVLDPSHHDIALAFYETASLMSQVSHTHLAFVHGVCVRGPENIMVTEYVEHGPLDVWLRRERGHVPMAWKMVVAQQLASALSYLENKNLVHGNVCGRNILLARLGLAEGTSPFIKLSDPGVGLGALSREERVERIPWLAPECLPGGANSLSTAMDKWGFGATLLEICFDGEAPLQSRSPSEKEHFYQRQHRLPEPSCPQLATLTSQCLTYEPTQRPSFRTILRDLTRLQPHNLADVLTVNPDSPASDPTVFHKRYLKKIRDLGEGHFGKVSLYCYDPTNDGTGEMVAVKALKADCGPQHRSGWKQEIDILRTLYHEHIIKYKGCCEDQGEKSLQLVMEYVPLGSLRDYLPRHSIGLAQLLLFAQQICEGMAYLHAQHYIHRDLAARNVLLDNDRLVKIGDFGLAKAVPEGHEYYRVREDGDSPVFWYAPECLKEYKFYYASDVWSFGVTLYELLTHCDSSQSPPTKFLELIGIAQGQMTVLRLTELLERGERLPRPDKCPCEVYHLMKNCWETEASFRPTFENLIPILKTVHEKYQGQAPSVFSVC
T1 sequence (P23458 849-1154): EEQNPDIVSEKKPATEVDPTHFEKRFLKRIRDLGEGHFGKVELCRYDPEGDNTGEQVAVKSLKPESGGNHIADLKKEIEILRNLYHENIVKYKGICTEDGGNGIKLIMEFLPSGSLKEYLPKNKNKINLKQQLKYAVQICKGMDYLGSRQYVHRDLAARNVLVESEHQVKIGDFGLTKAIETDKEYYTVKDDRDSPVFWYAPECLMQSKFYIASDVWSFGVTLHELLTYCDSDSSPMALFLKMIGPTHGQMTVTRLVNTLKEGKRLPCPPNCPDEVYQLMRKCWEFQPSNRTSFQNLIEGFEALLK

`O=C(Nc1ccc2cc1CCc1cccc(c1)Nc1ncc(Cl)c(n1)N2)[C@@H]1CCN(C(=O)Nc2ccccc2)C1` [Example A54, (3R)—N(3)-[6-Chloro-2,4,8,22-tetraazatetracyclo[14.3.1.1(3,7).1(9,13)]docosa-1(20),3(22),4,6,9(21),10,12,16,18-nonaen-12-yl]-N(1)-phenylpyrrolidine-1,3-dicarboxamide trifluoroacetate]: the IC50 worked out at 4 nM in experiment [1], 2.9 nM in experiment [2], 3.5 nM in experiment [3] and 12 nM at TYK2. In addition, the “ALK % of inhibition at a concentration of 500 nM or 1 mM” value (from here on “ALK % of inhibition”) in experiment [4] turned out to be 54%.

Regarding `CC(=O)N1CCC(CC(=O)Nc2ccc3cc2CCc2cccc(c2)Nc2ncc(Cl)c(n2)N3)CC1` [Example A55, 2-(1-Acetylpiperidin-4-yl)-N-[6-chloro-2,4,8,22-tetraazatetracyclo[14.3.1.1(3,7).1(9,13)]docosa-1(20),3(22),4,6,9(21),10,12,16,18-nonaen-12-yl]acetamide trifluoroacetate], the IC50 in experiment [1] was 1.5 nM; in experiment [2], 2.4 nM; in experiment [3], 54 nM; on TYK2, 2.3 nM. Moreover, the “ALK % of inhibition” value in experiment [4] came to 23%.

Turning to `O=C(CC1CCN(C(=O)c2ccccc2)CC1)Nc1ccc2cc1CCc1cccc(c1)Nc1ncc(Cl)c(n1)N2` [Example A56, 2-(1-Benzoylpiperidin-4-yl)-N-[6-chloro-2,4,8,22-tetraazatetracyclo[14.3.1.1(3,7).1(9,13)]docosa-1(20),3(22),4,6,9(21),10,12,16,18-nonaen-12-yl]acetamide trifluoroacetate], the IC50 in experiment [1] came out at 4.2 nM; in experiment [2], 7.3 nM; in experiment [3], 90 nM; against TYK2, 10 nM. Also, in experiment [4], the “ALK % of inhibition” value was 26%.

Regarding `CCNC(=O)N1CCC(CC(=O)Nc2ccc3cc2CCc2cccc(c2)Nc2ncc(Cl)c(n2)N3)CC1` [Example A57, 4-(2-{[6-Chloro-2,4,8,22-tetraazatetracyclo[14.3.1.1(3,7).1(9,13)]docosa-1(20),3(22),4,6,9(21),10,12,16,18-nonaen-12-yl]amino}-2-oxoethyl)-N-ethylpiperidine-1-carboxamide trifluoroacetate], the IC50 in experiment [1] came out at 5.5 nM; in experiment [2], 7.3 nM; in experiment [3], 60 nM; on TYK2, 8.8 nM. The “ALK % of inhibition” value in experiment [4] came to 24%.

For `O=C(CC1CCN(C(=O)Nc2ccccc2)CC1)Nc1ccc2cc1CCc1cccc(c1)Nc1ncc(Cl)c(n1)N2` [Example A58, 4-(2-{[6-Chloro-2,4,8,22-tetraazatetracyclo[14.3.1.1(3,7).1(9,13)]docosa-1(20),3(22),4,6,9(21),10,12,16,18-nonaen-12-yl]amino}-2-oxoethyl)-N-phenylpiperidine-1-carboxamide trifluoroacetate], the IC50 stood at 0.2 nM in experiment [1], 1.1 nM in experiment [2], 22 nM in experiment [3] and 9.9 nM against TYK2. Also, in experiment [4], the “ALK % of inhibition” value came out at 38%.

Consider `CCNC(=O)N1CCC(C(=O)Nc2ccc3cc2CCc2cccc(c2)Nc2ncc(Cl)c(n2)N3)CC1` [Example A59, N(4)-[6-Chloro-2,4,8,22-tetraazatetracyclo[14.3.1.1(3,7).1(9,13)]docosa-1(20),3(22),4,6,9(21),10,12,16,18-nonaen-12-yl]-N(1)-ethylpiperidine-1,4-dicarboxamide trifluoroacetate], for which the IC50 was 26 nM in experiment [1], 6.9 nM in experiment [2], 19 nM in experiment [3] and 15 nM against TYK2. Besides, the “ALK % of inhibition” value in experiment [4] is reported as 39%.

For the molecule `CCOC(=O)CNC(=O)N1CCC(C(=O)Nc2ccc3cc2CCc2cccc(c2)Nc2ncc(Cl)c(n2)N3)CC1` [Example A60, Ethyl ({[4-({[6-chloro-2,4,8,22-tetraazatetracyclo[14.3.1.1(3,7).1(9,13)]docosa-1(20),3(22),4,6,9(21),10,12,16,18-nonaen-12-yl]amino}carbonyl)piperidin-1-yl]carbonyl}amino)acetate trifluoroacetate], the IC50 in experiment [1] turned out to be 31 nM; in experiment [2], 6.5 nM; in experiment [3], 14 nM; against TYK2 it was 22 nM. Also, the “ALK % of inhibition” value in experiment [4] came to 28%.

With `O=C(Nc1ccc2cc1CCc1cccc(c1)Nc1ncc(Cl)c(n1)N2)C1CCN(C(=O)NC2CCCC2)CC1` [Example A61, N(4)-[6-Chloro-2,4,8,22-tetraazatetracyclo[14.3.1.1(3,7).1(9,13)]docosa-1(20),3(22),4,6,9(21),10,12,16,18-nonaen-12-yl]-N(1)-cyclopentylpiperidine-1,4-dicarboxamide trifluoroacetate], the IC50 was 29 nM in experiment [1], 11 nM in experiment [2], 16 nM in experiment [3] and 22 nM against TYK2. Besides, in experiment [4], the “ALK % of inhibition” value amounted to 41%.

Take `O=C(Nc1ccc2cc1CCc1cccc(c1)Nc1ncc(Cl)c(n1)N2)C1CCCN(C(=O)NC2CCCC2)C1` (stereo not shown) [Example A62, N(3)-[6-Chloro-2,4,8,22-tetraazatetracyclo[14.3.1.1(3,7).1(9,13)]docosa-1(20),3(22),4,6,9(21),10,12,16,18-nonaen-12-yl]-N(1)-cyclopentylpiperidine-1,3-dicarboxamide trifluoroacetate]: the IC50 in experiment [1] worked out at 7 nM; in experiment [2] it was 5.6 nM; in experiment [3], 9.1 nM; at TYK2, 12 nM. Further, the “ALK % of inhibition” value in experiment [4] is recorded as 26%.

With `O=C(Nc1ccc2cc1CCc1cccc(c1)Nc1ncc(Cl)c(n1)N2)[C@@H]1CCN(C(=O)NC2CCCC2)C1` [Example A63, (3R)—N(3)-[6-Chloro-2,4,8,22-tetraazatetracyclo[14.3.1.1(3,7).1(9,13)]docosa-1(20),3(22),4,6,9(21),10,12,16,18-nonaen-12-yl]-N(1)-cyclopentylpyrrolidine-1,3-dicarboxamide trifluoroacetate], the IC50 in experiment [1] came out at 9 nM; in experiment [2] it was 2.5 nM; in experiment [3], 2.6 nM; at TYK2, 13 nM. The “ALK % of inhibition” value in experiment [4] is 29%.

Take `O=C(CC1CCN(C(=O)NC2CCCC2)CC1)Nc1ccc2cc1CCc1cccc(c1)Nc1ncc(Cl)c(n1)N2` [Example A64, 4-(2-{[6-Chloro-2,4,8,22-tetraazatetracyclo[14.3.1.1(3,7).1(9,13)]docosa-1(20),3(22),4,6,9(21),10,12,16,18-nonaen-12-yl]amino}-2-oxoethyl)-N-cyclopentylpiperidine-1-carboxamide trifluoroacetate]: the IC50 amounted to 13 nM in experiment [1], 6.5 nM in experiment [2], 30 nM in experiment [3] and 23 nM on TYK2. In experiment [4], the “ALK % of inhibition” value is 23%.

Regarding `N#CCC(=O)Nc1ccc2cc1CCc1cccc(c1)Nc1ncc(Cl)c(n1)N2` [Example A65, N-[6-Chloro-2,4,8,22-tetraazatetracyclo[14.3.1.1(3,7).1(9,13)]docosa-1(20), 3(22),4,6,9(21),10,12,16,18-nonaen-12-yl]-2-cyanoacetamide trifluoroacetate], the IC50 in experiment [1] is 9 nM; in experiment [2], 11 nM; in experiment [3], 7.3 nM; on TYK2 it was 17 nM. Also, the “ALK % of inhibition” value in experiment [4] was found to be 39%.

For the molecule `O=C(CNC(=O)Nc1ccccc1)Nc1ccc2cc1CCc1cccc(c1)Nc1ncc(Cl)c(n1)N2` [Example A66, 2-[(Anilinocarbonyl)amino]-N-[6-chloro-2,4,8,22-tetraazatetracyclo[14.3.1.1(3,7).1(9,13)]docosa-1(20),3(22),4,6,9(21),10,12,16,18-nonaen-12-yl]acetamide trifluoroacetate], the IC50 is 9 nM in experiment [1], 3.1 nM in experiment [2], 6.2 nM in experiment [3] and 21 nM against TYK2. The “ALK % of inhibition” value in experiment [4] worked out at 26%.

Take `O=C(CCNC(=O)Nc1ccccc1)Nc1ccc2cc1CCc1cccc(c1)Nc1ncc(Cl)c(n1)N2` [Example A67, 3-[(Anilinocarbonyl)amino]-N-[6-chloro-2,4,8,22-tetraazatetracyclo[14.3.1.1(3,7).1(9,13)]docosa-1(20),3(22),4,6,9(21),10,12,16,18-nonaen-12-yl]propanamide trifluoroacetate]: the IC50 in experiment [1] amounted to 8 nM; in experiment [2], 2.8 nM; in experiment [3] it was 7.7 nM; at TYK2 it was 10 nM. In addition, the “ALK % of inhibition” value in experiment [4] turned out to be 40%.
